Measured values taken from patent US20230212116A1, “SARS-COV-2 MAIN PROTEASE INHIBITORS” (TEXAS A&M UNIVERSITY SYSTEM, priority 2020, published 2023).
Where two headings read alike, the source gives them in different places.

Assays:
[1] = tested on: SARS-CoV-2; assay type: cell-based
[2] = tested on: SARS-CoV-2; test: microbe, parasite or virus in culture; assay type: cell-based
[3] = tested on: SARS-CoV-2; assay type: cell-based; settings: A549/ACE2 cells; tested 80 nM to 10 μM
[4] = molecular target: T1, SARS-CoV-2 M^Pro (Severe acute respiratory syndrome coronavirus 2, UniProt P0DTD1); assay type: cell-based
[5] = molecular target: T1, SARS-CoV-2 M^Pro; test: biochemical; assay type: biochemical; settings: read-out: Enzymatic IC50
[6] = Vero E6 cells, tested 80 nM to 10 μM, two repeats
[7] = Severe acute respiratory syndrome coronavirus 2, Vero C1008, Vero E6 cells, plaque reduction, read-out: antiviral EC50

## CC(C)C[C@H](NC(=O)OCc1ccccc1)C(=O)N[C@@H](CC1CCNC1=O)C(O)S(=O)(=O)O (stereo partly drawn) [GC376, (2S)-2-((S)-2-(((benzyloxy)carbonyl)amino)-4-methylpentanamido)-1-hydroxy-3-(2-oxopyrrolidin-3-yl)propane-1-sulfonic acid, reference compound]
[1]; [6]
  concentration of complete abolition of SARS-CoV-2-induced CPE: 10 µM

## CC(C)C[C@H](NC(=O)[C@@H](NC(=O)OCc1ccccc1)C(C)C)C(=O)N[C@H](C=O)C[C@@H]1CCNC1=O [MPI3, benzyl ((S)-3-methyl-1-(((S)-4-methyl-1-oxo-1-(((S)-1-oxo-3-((S)-2-oxopyrrolidin-3-yl)propan-2-yl)amino)pentan-2-yl)amino)-1-oxobutan-2-yl)carbamate]
[1]
  concentration of complete abolition of SARS-CoV-2-induced CPE: not able to completely prevent CPE at all tested concentrations

## CC(C)[C@H](NC(=O)OCc1ccccc1)C(=O)N[C@@H](CC1CCCCC1)C(=O)N[C@H](C=O)C[C@@H]1CCNC1=O [MPI5, benzyl ((S)-1-(((S)-3-cyclohexyl-1-oxo-1-(((S)-1-oxo-3-((S)-2-oxopyrrolidin-3-yl)propan-2-yl)amino)propan-2-yl)amino)-3-methyl-1-oxobutan-2-yl)carbamate]
[1]; [6]
  concentration of complete abolition of SARS-CoV-2-induced CPE: 5 µM
[2]; [7]
  EC50: 73 nM

## CC(C)C[C@H](NC(=O)[C@@H](NC(=O)OCc1ccccc1)[C@@H](C)OC(C)(C)C)C(=O)N[C@H](C=O)C[C@@H]1CCNC1=O [MPI6, benzyl ((2S,3R)-3-(tert-butoxy)-1-(((S)-4-methyl-1-oxo-1-(((S)-1-oxo-3-((S)-2-oxopyrrolidin-3-yl)propan-2-yl)amino)pentan-2-yl)amino)-1-oxobutan-2-yl)carbamate]
[2]; Severe acute respiratory syndrome coronavirus 2, Vero C1008, read-out: antiviral EC50, Vero E6 cells, plaque reduction
  EC50: 209 nM

## C[C@@H](OC(C)(C)C)[C@H](NC(=O)OCc1ccccc1)C(=O)N[C@@H](Cc1ccccc1)C(=O)N[C@H](C=O)C[C@@H]1CCNC1=O [MPI7, benzyl ((2S,3R)-3-(tert-butoxy)-1-oxo-1-(((S)-1-oxo-1-(((S)-1-oxo-3-((S)-2-oxopyrrolidin-3-yl)propan-2-yl)amino)-3-phenylpropan-2-yl)amino)butan-2-yl)carbamate]
[1]; [6]
  concentration of complete abolition of SARS-CoV-2-induced CPE: 2.5 to 5 µM
[2]; [7]
  EC50: 170 nM
[3]
  concentration of complete abolition of SARS-CoV-2-induced CPE: not able to completely abolish CPE at all tested conditions

## C[C@@H](OC(C)(C)C)[C@H](NC(=O)OCc1ccccc1)C(=O)N[C@@H](CC1CCCCC1)C(=O)N[C@H](C=O)C[C@@H]1CCNC1=O [MPI8, benzyl ((2S,3R)-3-(tert-butoxy)-1-(((S)-3-cyclohexyl-1-oxo-1-(((S)-1-oxo-3-((S)-2-oxopyrrolidin-3-yl)propan-2-yl)amino)propan-2-yl)amino)-1-oxobutan-2-yl)carbamate]
[4]
  suppression of M^Pro-eGFP toxicity / promotion of cell survival and M^Pro-eGFP expression: effectively suppressed

## O=C[C@H](C[C@@H]1CCNC1=O)NC(=O)[C@H](CC1CCCCC1)NC(=O)c1cc2ccccc2[nH]1 [MPI10, N-((S)-3-cyclohexyl-1-oxo-1-(((S)-1-oxo-3-((S)-2-oxopyrrolidin-3-yl)propan-2-yl)amino)propan-2-yl)-1H-indole-2-carboxamide, reference compound]
[1]; [6]
  concentration of complete abolition of SARS-CoV-2-induced CPE: 10 µM
[3]
  concentration of complete abolition of SARS-CoV-2-induced CPE: potency similar to that shown in Vero E6 cells

## C[C@@H](OC(C)(C)C)[C@H](NC(=O)OCc1cccc(F)c1)C(=O)N[C@@H](CC1CCCCC1)C(=O)N[C@H](C=O)C[C@@H]1CCNC1=O [MPI102, 3-fluorobenzyl ((2S,3R)-3-(tert-butoxy)-1-(((S)-3-cyclohexyl-1-oxo-1-(((S)-1-oxo-3-((S)-2-oxopyrrolidin-3-yl)propan-2-yl)amino)propan-2-yl)amino)-1-oxobutan-2-yl)carbamate]
[5]
  IC50: 307 nM

## C[C@@H](OC(C)(C)C)[C@H](NC(=O)OCc1ccc(F)cc1)C(=O)N[C@@H](CC1CCCCC1)C(=O)N[C@H](C=O)C[C@@H]1CCNC1=O [MPI103, 4-fluorobenzyl ((2S,3R)-3-(tert-butoxy)-1-(((S)-3-cyclohexyl-1-oxo-1-(((S)-1-oxo-3-((S)-2-oxopyrrolidin-3-yl)propan-2-yl)amino)propan-2-yl)amino)-1-oxobutan-2-yl)carbamate]
[5]
  IC50: 196 ± 31 nM
